Measurements: ChEMBL document CHEMBL5154722, “Identification of new potent anticancer derivatives through simplifying the core structure and modification on their 14- hydroxyl group from oridonin” (Eur J Med Chem, 2022)

Tests used:
K562 = assay: Antiproliferative activity against human K562 cells assessed as reduction in cell viability incubated for 72 hrs by MTT assay; assay type: functional, cell-based; settings: K562, 72 h
MDA-MB-231 = assay: Antiproliferative activity against human MDA-MB-231 cells assessed as reduction in cell viability incubated for 72 hrs by MTT assay; assay type: functional, cell-based; settings: MDA-MB-231, 72 h
MCF7 = assay: Antiproliferative activity against human MCF7 cells assessed as reduction in cell viability incubated for 72 hrs by MTT assay; assay type: functional, cell-based; settings: MCF7, 72 h
SMMC-7721 = assay: Antiproliferative activity against human […] cells assessed as reduction in cell viability incubated for 72 hrs by MTT assay; assay type: functional, cell-based; settings: SMMC-7721, 72 h
MGC-803 = assay: Antiproliferative activity against human MGC-803 cells assessed as reduction in cell viability incubated for 72 hrs by MTT assay; assay type: functional, cell-based; settings: MGC-803, 72 h
SW480 = assay: Antiproliferative activity against human SW480 cells assessed as reduction in cell viability incubated for 72 hrs by MTT assay; assay type: functional, cell-based; settings: SW480, 72 h
H22 = assay: Antiproliferative activity against mouse H22 cells assessed as reduction in cell viability incubated for 72 hrs by MTT assay; assay type: functional, cell-based; settings: H22, 72 h
[1] = Selectivity index, ratio of IC50 for human L02 cells to IC50 for human SMMC-7721 cells; assay type: toxicity; settings: L02 cells and SMMC-7721 cells, read-out: Ratio IC50
[2] = Antiproliferative activity against human U-87 MG cells assessed as reduction in cell viability incubated for 72 hrs by MTT assay; assay type: functional, cell-based, U-87MG ATCC
[3] = Cytotoxicity against human L02 cells assessed as reduction in cell viability incubated for 72 hrs by MTT assay; assay type: toxicity, cell-based
HeLa = assay: Antiproliferative activity against human HeLa cells assessed as reduction in cell viability incubated for 72 hrs by MTT assay; assay type: functional, cell-based

C=C1C(=O)[C@]23[C@H](OC(=O)/C=C/c4ccco4)[C@H]1CC[C@H]2[C@]12CCCC(C)(C)[C@H]1C[C@@]3(O)OC2
IC50 (K562): 1440 nM

C=C1C(=O)[C@]23[C@H](OC(=O)c4ccc(C)cc4)[C@H]1CC[C@H]2[C@]12CCCC(C)(C)[C@H]1C[C@@]3(O)OC2
IC50 (K562): 5460 nM

C=C1C(=O)[C@]23[C@H](OC(=O)c4ccc(Br)cc4)[C@H]1CC[C@H]2[C@]12CCCC(C)(C)[C@H]1[C@H](O)[C@@]3(O)OC2
IC50 (K562): 4380 nM

C=C1C(=O)[C@]23[C@H](OC(=O)/C=C/c4cncnc4)[C@H]1CC[C@H]2[C@]12C=CCC(C)(C)[C@H]1[C@H](O)[C@@]3(O)OC2
IC50 (K562): 460 nM

C=C1C(=O)[C@]23[C@H](OC(=O)c4ccccc4)[C@H]1CC[C@H]2[C@]12CCCC(C)(C)[C@H]1[C@H](O)[C@@]3(O)OC2
IC50 (K562): 3450 nM

C=C1C(=O)[C@]23[C@H](OC(=O)/C=C/c4cccnc4)[C@H]1CC[C@H]2[C@]12CCCC(C)(C)[C@H]1C[C@@]3(O)OC2
IC50 (K562): 560 nM

C=C1C(=O)[C@@]23C(=O)[C@@H](OC(C)=O)[C@@H]4C(C)(C)CC=C[C@@]4(COC(C)=O)[C@@H]2CC[C@@H]1[C@H]3OC(C)=O
IC50 (MDA-MB-231): 3140 nM
IC50 (MCF7): 3570 nM
IC50 (K562): 1670 nM
IC50 (SMMC-7721): 2920 nM

C=C1C(=O)[C@]23[C@H](OC(=O)c4cccc(C)c4)[C@H]1CC[C@H]2[C@]12CCCC(C)(C)[C@H]1[C@H](O)[C@@]3(O)OC2
IC50 (K562): 2830 nM

C=C1C(=O)[C@]23[C@H](OC(C)=O)[C@H]1CC[C@H]2[C@]12CCCC(C)(C)[C@H]1[C@H](O)[C@@]3(O)OC2
IC50 (K562): 5340 nM

C=C1C(=O)[C@]23[C@H](OC(=O)/C=C/C)[C@H]1CC[C@H]2[C@]12CCCC(C)(C)[C@H]1[C@H](O)[C@@]3(O)OC2
IC50 (K562): 390 nM

C=C1C(=O)[C@]23[C@H](OC(=O)/C=C/c4ccccc4)[C@H]1CC[C@H]2[C@]12CCCC(C)(C)[C@H]1C[C@@]3(O)OC2
IC50 (K562): 2740 nM

C=C1C(=O)[C@@]23C(CC[C@@H]1[C@H]2OC(=O)c1ccc(F)cc1)[C@]12CCCC(C)(C)C1[C@H](O)[C@@]3(O)OC2 (stereo partly drawn)
IC50 (K562): 4630 nM

C=C1C(=O)[C@]23[C@H](OC(=O)/C=C/c4ccc[nH]4)[C@H]1CC[C@H]2[C@]12CCCC(C)(C)[C@H]1[C@H](O)[C@@]3(O)OC2
IC50 (K562): 1320 nM

C=C1C(=O)[C@]23[C@H](OC(=O)/C=C/c4cccnc4)[C@H]1CC[C@H]2[C@]12C=CCC(C)(C)[C@H]1[C@H](O)[C@@]3(O)OC2
IC50 (K562): 540 nM

C=C1C(=O)[C@]23[C@H](OC(=O)/C=C/c4ccco4)[C@H]1CC[C@H]2[C@]12C=CCC(C)(C)[C@H]1[C@H](O)[C@@]3(O)OC2
IC50 (K562): 1520 nM

C=C1C(=O)[C@]23[C@H](OC(=O)CCc4ccccc4)[C@H]1CC[C@H]2[C@]12C=CCC(C)(C)[C@H]1[C@H](O)[C@@]3(O)OC2
IC50 (K562): 2740 nM

C=C1C(=O)[C@]23[C@H](O)[C@H]1CC[C@H]2[C@]12C=CCC(C)(C)[C@H]1[C@H](O)[C@@]3(O)OC2
IC50 (MDA-MB-231): 1880 nM
IC50 (MCF7): 3500 nM
IC50 (K562): 2040 nM
IC50 (SMMC-7721): 3760 nM

C=C1C(=O)[C@]23[C@H](O)[C@H]1CC[C@H]2[C@]12CCCC(C)(C)[C@H]1[C@H](O)[C@@]3(O)OC2
IC50 (MDA-MB-231): 2040 nM
IC50 (MCF7): 2800 nM
IC50 (K562): 1230 nM
IC50 (SMMC-7721): 3140 nM

C=C1C(=O)[C@]23[C@H](O)[C@H]1CC[C@H]2[C@]12CCCC(C)(C)[C@H]1C[C@@]3(O)OC2
IC50 (MDA-MB-231): 2510 nM
IC50 (MCF7): 2970 nM
IC50 (K562): 1980 nM
IC50 (SMMC-7721): 2960 nM

C=C1C(=O)[C@]23[C@H](OC(=O)/C=C/c4ccc[nH]4)[C@H]1CC[C@H]2[C@]12C=CCC(C)(C)[C@H]1[C@H](O)[C@@]3(O)OC2
IC50 (K562): 1510 nM

C=C1C(=O)[C@]23[C@H](OC(=O)/C=C(\C)c4ccccc4)[C@H]1CC[C@H]2[C@]12CCCC(C)(C)[C@H]1[C@H](O)[C@@]3(O)OC2
IC50 (K562): 5320 nM

C=C1C(=O)[C@]23[C@H](OC(=O)/C=C/c4ccc(F)nc4)[C@H]1CC[C@H]2[C@]12C=CCC(C)(C)[C@H]1[C@H](O)[C@@]3(O)OC2
IC50 (K562): 830 nM

C=C1C(=O)[C@]23[C@H](OC(=O)/C=C/c4ccnc(F)c4)[C@H]1CC[C@H]2[C@]12CCCC(C)(C)[C@H]1C[C@@]3(O)OC2
IC50 (K562): 900 nM

C=C1C(=O)[C@]23[C@H](OC(=O)/C=C/c4ccc(OC)nc4)[C@H]1CC[C@H]2[C@]12C=CCC(C)(C)[C@H]1[C@H](O)[C@@]3(O)OC2
IC50 (K562): 1520 nM

C=C1C(=O)[C@]23[C@H](OC(=O)c4ccc(C)cc4)[C@H]1CC[C@@]2(C)[C@]12CCCC(C)(C)[C@H]1[C@H](O)[C@@]3(O)OC2
IC50 (K562): 3010 nM

C=C1C(=O)[C@]23[C@H](OC(=O)/C=C/c4ccccc4)[C@H]1CC[C@H]2[C@]12C=CCC(C)(C)[C@H]1[C@H](O)[C@@]3(O)OC2
IC50 (K562): 710 nM

C=C1C(=O)[C@]23[C@H](OC(=O)/C=C/c4cccc5c4OCO5)[C@H]1CC[C@H]2[C@]12C=CCC(C)(C)[C@H]1[C@H](O)[C@@]3(O)OC2
IC50 (K562): 2800 nM

C=C1C(=O)[C@]23[C@H](OC(=O)CCCc4ccccc4)[C@H]1CC[C@H]2[C@]12C=CCC(C)(C)[C@H]1[C@H](O)[C@@]3(O)OC2
IC50 (K562): 3640 nM

C=C1C(=O)[C@@]23C(=O)[C@@H](OC(C)=O)[C@@H]4C(C)(C)CCC[C@@]4(COC(C)=O)[C@@H]2CC[C@@H]1[C@H]3OC(C)=O
IC50 (MDA-MB-231): 1590 nM
IC50 (MCF7): 2060 nM
IC50 (K562): 1030 nM
IC50 (SMMC-7721): 2270 nM

C=C1C(=O)[C@]23[C@H](OC(=O)/C=C/c4cccnc4Br)[C@H]1CC[C@H]2[C@]12C=CCC(C)(C)[C@H]1[C@H](O)[C@@]3(O)OC2
IC50 (K562): 3090 nM

C=C1C(=O)[C@]23[C@H](OC(=O)/C=C/c4ccsc4)[C@H]1CC[C@H]2[C@]12C=CCC(C)(C)[C@H]1[C@H](O)[C@@]3(O)OC2
IC50 (K562): 1340 nM

C=C1C(=O)[C@]23[C@H](OC(=O)/C=C/c4cccc(Br)n4)[C@H]1CC[C@H]2[C@]12C=CCC(C)(C)[C@H]1[C@H](O)[C@@]3(O)OC2
IC50 (K562): 1370 nM

C=C1C(=O)[C@]23[C@H](OC(=O)/C=C/c4cccc5[nH]ccc45)[C@H]1CC[C@H]2[C@]12C=CCC(C)(C)[C@H]1[C@H](O)[C@@]3(O)OC2
IC50 (K562): 2580 nM

C=C1C(=O)[C@]23[C@H](OC(=O)/C=C/c4ccccn4)[C@H]1CC[C@H]2[C@]12C=CCC(C)(C)[C@H]1[C@H](O)[C@@]3(O)OC2
IC50 (K562): 1600 nM

C=C1C(=O)[C@]23[C@H](OC(=O)C4CCCCC4)[C@H]1CC[C@H]2[C@]12CCCC(C)(C)[C@H]1[C@H](O)[C@@]3(O)OC2
IC50 (K562): 4050 nM

C=C1C(=O)[C@]23[C@H](OC(=O)c4ccccc4C)[C@H]1CC[C@H]2[C@]12CCCC(C)(C)[C@H]1[C@H](O)[C@@]3(O)OC2
IC50 (K562): 3290 nM

C=C1C(=O)[C@]23[C@H](O)[C@H]1CC[C@H]2[C@@]12CO[C@]3(O)[C@@H](O)[C@@H]1C(C)(C)CC[C@@H]2O [ORIDONIN]
IC50 (MGC-803): 15100 nM
IC50 (MDA-MB-231): 11600 nM
IC50 (SW480): 11600 nM
IC50 (H22): 4880 nM
selectivity ratio [1]: 2.73
IC50 [2]: 14000 nM
IC50 at 72 h [3]: 34300 nM
IC50 (MCF7): 11100 nM
IC50 (SMMC-7721): 12600 nM
IC50 (HeLa): 17300 nM

C=C1C(=O)[C@]23[C@H](OC(=O)/C=C/c4ccc5ccccc5c4)[C@H]1CC[C@H]2[C@]12C=CCC(C)(C)[C@H]1[C@H](O)[C@@]3(O)OC2
IC50 (K562): 2880 nM

C=C1C(=O)[C@]23[C@H](OC(=O)/C=C/c4ccsc4)[C@H]1CC[C@H]2[C@]12CCCC(C)(C)[C@H]1C[C@@]3(O)OC2
IC50 (K562): 800 nM

C=C1C(=O)[C@]23[C@H](OC(C)=O)[C@H]1CC[C@H]2[C@]12CCCC(C)(C)[C@H]1C[C@@]3(O)OC2
IC50 (K562): 1200 nM

C=C1C(=O)[C@]23[C@H](OC(=O)/C=C/c4ccc5ccccc5n4)[C@H]1CC[C@H]2[C@]12C=CCC(C)(C)[C@H]1[C@H](O)[C@@]3(O)OC2
IC50 (K562): 2900 nM

C=C1C(=O)[C@]23[C@H](OC(=O)/C=C/c4ccccc4)[C@H]1CC[C@H]2[C@]12CCCC(C)(C)[C@H]1[C@H](O)[C@@]3(O)OC2
IC50 (K562): 1760 nM

C=C1C(=O)[C@]23[C@H](OC(=O)C=C(C)C)[C@H]1CC[C@H]2[C@]12CCCC(C)(C)[C@H]1[C@H](O)[C@@]3(O)OC2
IC50 (K562): 900 nM

C=C1C(=O)[C@]23[C@H](OC(=O)/C=C/c4ccc5ccccc5c4)[C@H]1CC[C@H]2[C@]12CCCC(C)(C)[C@H]1[C@H](O)[C@@]3(O)OC2
IC50 (K562): 3700 nM
